Measured values reported in patent EP1137645B1, “ALPHA-METHYLBENZYL-CONTAINING THIOUREA INHIBITORS OF HERPES VIRUSES CONTAINING A […] GROUP” (Wyeth, priority 1998, dated 2000).
≈ marks a conversion by molar mass, not a printed value. Like-named read-outs stand apart in the source and are kept apart here.

Key:
VZV strain Ellen = assay: VZV antiviral (ELISA) assay; assay type: cell-based
Method in brief: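 HFF cells infected with VZV Ellen at multiplicity below 0.1 overnight, then mixed infected/uninfected cells seeded with compound in DMEM/2% FBS and incubated three days at 37°C, 5% CO2.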

HSV- I = assay: HSV antiviral (ELISA) assay; assay type: cell-based; conditions: read-out: IC50 (ug/ml) HSV
Method in brief: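 IC50 from fluorescence versus untreated control in a cell ELISA: anti-glycoprotein D antibody, β-galactosidase-conjugated secondary, 4-methyl umbelliferone read at 365/450 nm. Vero cells (2% FBS DMEM) received compound 30 min pre-infection with HSV-1 at MOI 0.006, fixed ~24 h post-infection.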

[1] = tested on: HCMV recombinant mutant virus whose genome contains the prokaryotic beta-glucuronidase gene; assay: microbe, parasite or virus in culture; assay type: cell-based, human cytomegalovirus; conditions: Human betaherpesvirus 5, Fibroblast
Method in brief: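 Antiviral IC50 estimated from reduced reporter activity across compound amounts: lysates prepared 96 h after infection were tested with p-nitrophenyl- or methylumbelliferyl-glucuronide. Cells were human foreskin fibroblasts, infected alongside inhibitor with HCMV (e.g. RV145) expressing viral promoter-driven beta-glucuronidase.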

[2] = Human alphaherpesvirus 3, read-out: % inhibition 10 ug/ml VZV, 10 ug/ml, VZV strain Ellen, HFF cells, ELISA
[3] = Human alphaherpesvirus 3, VZV strain Ellen, HFF cells, ELISA, read-out: IC50 (ug/ml) VZV
[4] = Human alphaherpesvirus 3, HFF, read-out: % inhibition 10 ug/ml VZV
[5] = Human alphaherpesvirus 3, HFF, read-out: IC50 (ug/ml) VZV
[6] = read-out: IC50 ug/ml HCMV, HCMV, human foreskin fibroblasts
[7] = Human alphaherpesvirus 3, HFF, read-out: IC50 (ug/ml) VZV, VZV strain Ellen, HFF cells, ELISA

| SMILES | inhibition at 10 µg/mL (VZV strain Ellen; [2]) [%] | IC50 (VZV strain Ellen; [3]) [µg/mL] | IC50 (HSV- I; HSV- I, Vero cells, ELISA) [µg/mL] | IC50 ([1]; read-out: IC50 ug/ml HCMV) [µg/mL] | inhibition at 10 µg/mL (VZV strain Ellen; [4]) [%] | IC50 (VZV strain Ellen; [5]) [µg/mL] | IC50 [1, 6] [µg/mL] | IC50 (VZV strain Ellen; [7]) [µg/mL] | IC50 (HSV- I; Vero) [µg/mL] |
| --- | --- | --- | --- | --- | --- | --- | --- | --- | --- |
| N#Cc1cccc(NC(=S)Nc2ccc(NC(=O)c3ccccc3F)cc2)c1 [Example 461, N-{4-[3-(3-Cyano-phenyl)-thioureido]-phenyl}-2-fluoro-benzamide] | 33 | > 10 | > 10 | > 10 | – | – | – | – | – |
| NNC(=O)c1cccc(NC(=S)Nc2ccc(NC(=O)c3ccccc3F)cc2)c1 [Example 463, 2-Fluoro-N-{4-[3-(3-hydrazinocarbonyl-phenyl)-thioureido]-phenyl}-benzamide] | 19 | > 10 | > 10 | > 10 | – | – | – | – | – |
| Nc1c(Cl)cccc1NC(=S)Nc1ccc(NC(=O)c2c(F)cccc2F)cc1 [Example 465, N-{4-[3-(2-Amino-3-chloro-phenyl)-thioureido]-phenyl}-2,6-difluoro-benzamide] | – | – | > 10 | – | 31 | > 10 | > 10 | – | – |
| O=C(Nc1ccc(NC(=S)Nc2cccc(O)c2)cc1)c1ccccc1F [Example 475, 2-Fluoro-N-{4-[3-(3-hydroxy-phenyl)-thioureido]-phenyl}-benzamide] | 28 | > 10 | 5 (≈ 13.1 µM) | > 10 | – | – | – | – | – |
| O=C(Nc1ccc(NC(=S)Nc2cccc(CO)c2)cc1)c1ccccc1F [Example 476, 2-Fluoro-N-{4-[3-(3-hydroxymethyl-phenyl)-thioureido]-phenyl}-benzamide] | 21 | > 10 | 10 (≈ 25.3 µM) | > 10 | – | – | – | – | – |
| CC(=O)Nc1cccc(NC(=S)Nc2ccc(NC(=O)c3ccccc3F)cc2)c1 [Example 477, N-{4-[3-(3-Acetylamino-phenyl)-thioureido]-phenyl}-2-fluoro-benzamide] | 15 | > 10 | > 10 | > 10 | – | – | – | – | – |
| O=C(Nc1ccc(NC(=S)Nc2ccc3scnc3c2)cc1)c1ccccc1F [Example 484, N-[4-(3-Benzothiazol-5-yl-thioureido)-phenyl]-2-fluoro-benzamide] | – | – | 0.4 (≈ 0.947 µM) | – | 28 | > 10 | > 10 | – | – |
| COc1cccc(NC(=S)Nc2ccc(NC(=O)c3ccccc3F)cc2)c1 [Example 487, 2-Fluoro-N-{4-[3-(3-methoxy-phenyl)-thioureido]-phenyl}-benzamide] | 48 | > 10 | 4 (≈ 10.1 µM) | 10 (≈ 25.3 µM) | – | – | – | – | – |
| CN(C)c1ccc(Cl)cc1NC(=S)Nc1ccc(NC(=O)c2ccccc2F)cc1 [Example 490, N-{4-[3-(5-Chloro-2-dimethylamino-phenyl)-thioureido]-phenyl}-2-fluoro-benzamide] | – | – | 1 (≈ 2.26 µM) | – | 68 | > 10 | 2.5 (≈ 5.64 µM) | – | – |
| CC(N=[N+]=[N-])c1ccc(NC(=S)Nc2ccc(NC(=O)c3ccccc3F)cc2)cc1Cl (centres unmarked) [Example 492, N-(4-{3-[4-(1-Azido-ethyl)-3-chloro-phenyl]-thioureido}-phenyl)-2-fluoro-benzamide] | – | – | > 10 | – | 32 | > 10 | 2 (≈ 4.26 µM) | – | – |
| O=C(Nc1ccc(NC(=S)Nc2ccc3[nH]cnc3c2)cc1)c1ccccc1F [Example 496, N-{4-[3-(1H-Benzoimidazol-5-yl)-thioureido]-phenyl}-2-fluoro-benzamide] | 25 | > 10 | > 10 | 10 (≈ 24.7 µM) | – | – | – | – | – |
| Cc1nc2cc(NC(=S)Nc3ccc(NC(=O)c4ccccc4F)cc3)ccc2[nH]1 [Example 497, 2-Fluoro-N-{4-[3-(2-methyl-1H-benzoimidazol-5-yl)-thioureido]-phenyl}-benzamide] | 10 | > 10 | > 10 | 10 (≈ 23.8 µM) | – | – | – | – | – |
| Nc1nccc(-c2ccc(NC(=S)Nc3ccc(NC(=O)c4ccccc4F)cc3)cc2Cl)n1 [Example 502, N-(4-{3-[4-(2-Amino-pyrimidin-4-yl)-3-chloro-phenyl]-thioureido}-phenyl)-2-fluoro-benzamide] | – | – | > 10 | – | 13 | > 10 | 1.8 (≈ 3.65 µM) | – | – |
| CN(C)c1c(Cl)cccc1NC(=S)Nc1ccc(NC(=O)c2c(F)cccc2F)cc1 [Example 504, N-{4-[3-(3-Chloro-2-dimethylamino-phenyl)-thioureido]-phenyl}-2,6-difluoro-benzamide] | – | – | 6 (≈ 13 µM) | – | 99 | 4.5 (≈ 9.76 µM) | 2 (≈ 4.34 µM) | – | – |
| O=C(Nc1ccc(NC(=S)NCc2cccc(Cl)c2)cc1)c1ccccc1F [Example 511, N-{4-[3-(3-Chloro-benzyl)-thioureido]-phenyl}-2-fluoro-benzamide] | – | – | > 10 | – | 10 | > 10 | > 10 | – | – |
| O=C(Nc1ccc(NC(=S)Nc2cc(C(F)(F)F)cc(C(F)(F)F)c2)cc1)c1ccccc1F [Example 517, N-{4-[3-(3,5-Bis-trifluoromethyl-phenyl)-thioureido]-phenyl}-2-fluoro-benzamide] | 5 | > 10 | > 10 | 1.1 (≈ 2.19 µM) | – | – | – | – | – |
| Nc1c(Cl)cc(NC(=S)Nc2ccc(NC(=O)c3ccccc3F)cc2)cc1Cl [Example 518, N-{4-[3-(4-Amino-3,5-dichloro-phenyl)-thioureido]-phenyl}-2-fluoro-benzamide] | – | – | 0.25 (≈ 0.556 µM) | – | 32 | > 10 | 4 (≈ 8.9 µM) | – | – |
| Nc1c(Br)cc(NC(=S)Nc2ccc(NC(=O)c3ccccc3F)cc2)cc1Br [Example 519, N-{4-[3-(4-Amino-3,5-dibromo-phenyl)-thioureido]-phenyl}-2-fluoro-benzamide] | 18 | > 10 | 0.4 (≈ 0.743 µM) | 1.7 (≈ 3.16 µM) | – | – | – | – | – |
| CN(C)c1cc(Cl)cc(NC(=S)Nc2ccc(NC(=O)c3ccccc3F)cc2)c1 [Example 523, N-{4-[3-(3-Chloro-5-dimethylamino-phenyl)-thioureido]-phenyl}-2-fluoro-benzamide] | – | – | 0.6 (≈ 1.35 µM) | – | 75 | 4 (≈ 9.03 µM) | 3.2 (≈ 7.22 µM) | – | – |
| O=C(Nc1ccc(NC(=S)Nc2ccc3[nH]nnc3c2)cc1)c1c(F)cccc1F [Example 527, N-{4-[3-(1H-Benzotriazol-5-yl)-thioureido]-phenyl}-2,6-difluoro-benzamide] | 20 | > 10 | > 10 | > 10 | – | – | – | – | – |
| O=C(Nc1ccc(NC(=S)Nc2cc(Br)cc(C(F)(F)F)c2)cc1)c1ccccc1F [Example 531, N-{4-[3-(3-Bromo-5-trifluoromethyl-phenyl)-thioureido]-phenyl}-2-fluoro-benzamide] | – | – | – | – | – | – | 5 (≈ 9.76 µM) | 6 (≈ 11.7 µM) | > 10 |
| O=C(Nc1ccc(NC(=S)NCc2ccccc2)cc1)c1ccccc1F [Example 536, N-[4-(3-Benzyl-thioureido)-phenyl]-2-fluoro-benzamide] | – | > 10 | > 10 | > 10 | – | – | – | – | – |
| O=C(Nc1ccc(NC(=S)NCc2ccc(Cl)c(Cl)c2)cc1)c1ccccc1F [Example 538, N-{4-[3-(3,4-Dichloro-benzyl)-thioureido]-phenyl}-2-fluoro-benzamide] | – | – | – | – | – | – | > 10 | 10 (≈ 22.3 µM) | > 10 |
| O=C(Nc1ccc(NC(=S)NCc2ccc3c(c2)OCO3)cc1)c1ccccc1F [Example 540, N-[4-(3-Benzo[1,3]dioxol-5-ylmethyl-thioureido)-phenyl]-2-fluoro-benzamide] | – | > 10 | > 10 | > 0.5 | – | – | – | – | – |
| O=C(Nc1ccc(NC(=S)NCc2cc(C(F)(F)F)cc(C(F)(F)F)c2)cc1)c1ccccc1F [Example 543, N-{4-[3-(3,5-Bis-trifluoromethyl-benzyl)-thioureido]-phenyl}-2-fluoro-benzamide] | – | > 10 | > 10 | 0.3 (≈ 0.582 µM) | – | – | – | – | – |
